Experimental data from ChEMBL document CHEMBL1149841, “Synaptosides A and A1, triterpene glycosides from the sea cucumber Synapta maculata containing 3-O-methylglucuronic acid and their cytotoxic activity against tumor cells” (J Nat Prod, 2008).
The source made the active and inactive calls. No cut-off for these calls is given here.

How the values were obtained:
[1] = tested on: HeLa; assay: Cytotoxicity against human HeLa cells after 12 hrs at 14.1 ug/ml by MTS reduction assay; assay type: functional, cell-based
[2] = tested on: HeLa; assay: Cytotoxicity against human HeLa cells after 12 hrs by MTS reduction assay; assay type: functional, cell-based

SMILES | Activity [1] | IC50 [2]
CO[C@@H]1[C@@H](O)[C@H](O[C@@H]2[C@@H](O)[C@H](O[C@H]3[C@H](O)[C@@H](O)[C@H](O[C@H]4[C@H](O[C@H]5CC[C@]6(C)C7=C(C(=O)C[C@H]6C5(C)C)[C@]5(C)CC[C@H]6[C@]5(CC7)C(=O)O[C@@]6(C)CC(=O)CC(C)C)OC[C@@H](O[C@@H]5O[C@H](COS(=O)(=O)O)[C@@H](O)[C@H](O)[C@H]5O)[C@@H]4O)O[C@@H]3C)O[C@H](CO)[C@H]2O)O[C@H](C(=O)O)[C@H]1O | inactive | –
CO[C@@H]1[C@@H](O)[C@H](O[C@@H]2[C@@H](O)[C@H](O[C@H]3[C@H](O)[C@@H](O)[C@H](O[C@H]4[C@H](O[C@H]5CC[C@]6(C)[C@@H]7CC[C@]89C(=O)O[C@@](C)(CC(=O)CC(C)C)[C@H]8CC[C@@]9(C)C7=CC[C@H]6C5(C)C)OC[C@@H](O[C@@H]5O[C@H](COS(=O)(=O)[O-])[C@@H](O)[C@H](O)[C@H]5O)[C@@H]4O)O[C@@H]3C)O[C@H](CO)[C@H]2O)O[C@H](C(=O)[O-])[C@H]1O.[Na+].[Na+] [SYNAPTOSIDE A] | – | 8.6 µg/mL
